Patent US11434241B2, “Pyrimidine derivatives for prevention and treatment of bacterial infections” (UNIVERSITE DE LIEGE, priority 2018, dated 2022)
Converted amounts (≈) assume the structure as drawn. Read-outs that look alike come from different tables or passages of the source.

Columns and labels:
S. aureus ATCC 25904 = assay: MIC determination on S. aureus ATCC 25904; format: cell-based; conditions: Staphylococcus aureus, ATCC25904, read-out: MIC S. aureus ATCC25904
Procedure: (§1) Further experiments are conducted using different strains of S. aureus, as clinically relevant Gram-positive bacterial strains: S. aureus ATCC 25904, methicillin-resistant S. aureus (MRSA) ATCC BAA-1556, Glycopeptide intermediate-resistant (GISA) S. aureus Mu-50 (ATCC 700695) in order to determine the Minimal Inhibitory Concentration (MIC) which is the minimal concentration required to prevent bacterial growth. The bioluminescent strain S. aureus Xen29 (ATCC 12600) was also used. This strain is derived from the parental strain S. aureus ATCC 12600, a pleural fluid isolate, which is also designated as NCTC8532.
(§2) A single colony selected from the different strains of S. aureus is resuspended and cultured in brain heart infusion (BHI) broth overnight (O/N) in aerobic conditions (37° C. with 220 rpm shaking), next day a 1:100 inoculum in Mueller-Hinton broth (MHB) is incubated in aerobic conditions for 3 hr (=OD0.08-0.1) and an inoculum of 1:300 dilution, corresponding to 3×10^5 CFU/ml, is incubated in presence or absence of different concentrations of the tested molecules in 1% DMSO. After O/N growth the OD of each culture was measured at 600 nm (OD600) in a spectrophotometer (Victor 3-Perkin Elmer). The MIC represents the concentration at which there is no visible growth of bacteria, i.e. ΔOD at 600 nm equal to zero (blank is the medium alone). […] The MIC of molecule 2329 against Glycopeptide intermediate-resistant (GISA) S. aureus Mu-50 (ATCC 700695) is in between 25 and 30 μM, while it is above 50 μM for molecules 2348, 2412, and 2452.

[1] = tested on: S. aureus Xen29 (ATCC 12600); assay: MIC determination on bioluminescent S. aureus Xen29; format: cell-based, Staphylococcus aureus; conditions: for MIC: Staphylococcus aureus; for antibacterial activity / inhibition of Xen29 growth (in words): MHB medium
Procedure: as §1, §2
(§3) Further experiments are conducted using different strains of S. aureus, as clinically relevant Gram-positive bacterial strains: methicillin-resistant S. aureus (MRSA) ATCC BAA-1556 and S. aureus Xen29 (Perkin Elmer ATCC 12600).
(§4) To determine the MIC of the above mentioned molecules in MRSA or in Xen29, a single colony of MRSA or Xen29 is resuspended and cultured in brain heart infusion (BHI) broth overnight (O/N) in aerobic conditions (37° C. with 220 rpm shaking), next day a 1:100 inoculum in Mueller-Hinton broth (MHB) is incubated in aerobic conditions for 3 hr (OD=0.08-0.1) and an inoculum of 1:300 dilution, corresponding to 3×10^5 CFU/ml, is incubated in presence or absence of different concentrations of the tested molecules in 1% DMSO. After O/N growth the OD of each culture was measured at 600 nm (OD600) in a spectrophotometer (Victor 3-Perkin Elmer). The MIC represents the concentration at which there is no visible growth of bacteria, i.e. ΔOD at 600 nm equal to zero (blank is the medium alone).
(§5) Molecule 36z has been tested for its potential antibacterial activity by determining its minimal inhibitory concentration (MIC) according to protocols recommended by EUCAST to assess the efficacy of antibiotics against bacterial strains. In brief MIC in MRSA (ATCC BAA-1556) or in Xen29 (Perkin Elmer-ATCC 12600) for 36z (molecule 25 in WO2009/034386) was determined by culturing a single colony of MRSA or Xen29 in brain heart infusion (BHI) broth overnight (O/N) in aerobic conditions (37° C. with 220 rpm shaking), while MIC for MRSE (ATCC 35984) was determined by culturing MRSE in TSB O/N. Next day a 1:100 inoculum in Mueller-Hinton broth (MHB) is incubated in aerobic conditions for 3 hr (OD=0.08-0.1) and an inoculum of 1:300 dilution, corresponding to 3×10^5 CFU/ml, is incubated in presence or absence of different concentrations of the tested molecules in 1% DMSO. After O/N growth the OD of each culture was measured at 600 nm (OD600) in a spectrophotometer (Victor 3-Perkin Elmer). The MIC represents the concentration at which there is no visible growth of bacteria, i.e. ΔOD at 600 nm equal to zero (blank is the medium alone). No antibacterial activity was found against MRSA (ATCC BAA-1556), Xen29 (Perkin Elmer-ATCC 12600 or MRSE (ATCC 35984) strains when the molecule was used at concentrations up to 200 μM.

[2] = tested on: methicillin-resistant S. aureus (MRSA) ATCC BAA-1556; assay: MIC determination on methicillin-resistant S. aureus; format: cell-based, Staphylococcus aureus; conditions: for MIC: Staphylococcus aureus; for antibacterial activity against MRSA (in words): MHB medium
Procedure: as §1, §2, §3, §4, §5

[3] = tested on: Glycopeptide intermediate-resistant (GISA) S. aureus Mu-50 (ATCC 700695); assay: MIC determination on glycopeptide intermediate-resistant S. aureus; format: cell-based; conditions: Staphylococcus aureus, ATCC700695, read-out: MIC S. aureus GISA
Procedure: as §1, §2

[4] = tested on: vancomycin-resistant (VRE) E. faecalis ATCC BAA-2365; assay: MIC determination on vancomycin-resistant E. faecalis; format: cell-based, Enterococcus faecalis; conditions: Mueller-Hinton broth (MHB)
Procedure: Further experiments were conducted using the clinically relevant Gram-positive bacterial strain of vancomycin-resistant (VRE) E. faecalis ATCC BAA-2365, in order to determine the Minimal Inhibitory Concentration (MIC) which is the minimal concentration required to prevent bacterial growth.
A single colony selected from E. faecalis VRE is resuspended and cultured in the brain heart infusion (BHI) broth overnight (O/N) in aerobic conditions (37° C. with 220 rpm shaking), next day a 1:100 inoculum in Mueller-Hinton broth (MHB) is incubated in aerobic conditions for 3 hr (OD=0.08-0.1) and an inoculum of 1:300 dilution, corresponding to 3×10^5 CFU/ml, is incubated in presence or absence of different concentrations of the tested molecules in 1% DMSO. After O/N growth the OD of each culture is measured at 600 nm (OD600) in a spectrophotometer (Victor 3-Perkin Elmer). The MIC represents the concentration at which there is no visible growth of bacteria, i.e. ΔOD at 600 nm equal to zero (blank is the medium alone).

MRSA = assay: Minimal Bactericidal Concentration (MBC) for MRSA; format: cell-based, Staphylococcus aureus; conditions: for MBC: Staphylococcus aureus, MRSA, 99.9% of initial inoculum killed over 24 hours
Procedure: We have determined the Minimal Bactericidal Concentration (MBC) of the pyrazolopyrimidine molecule 2666 for the MRSA strain and the MBC of the purine molecules 2329 and 2833 for MRSA and the MRSE strain respectively.
To determine the MBC, bacteria were grown as per MIC determination in presence of the pyrazolopyrimidine molecule 2666 for MRSA or in presence of the purine molecule 2833 for MRSE or 2329 for MRSA. At 24 hours bacteria were plated on TSB agar plates by the broth microdilution method, and colonies formed on the plates were counted next day.
The MBC represents the lowest concentration at which 99.9% bacteria of the initial inoculum are killed over 24 hours.

[5] = ATCC12600, read-out: MIC S. aureus Xen29

Row | SMILES | MIC (S. aureus ATCC 25904) | MIC [1, 5] | MIC ([2]; read-out: MIC S. aureus MRSA) | MIC [3] | MIC [4] | MBC relative to MIC, MRSA (MRSA) | MBC (MRSA) | antibacterial activity / inhibition of Xen29 growth (in words) [1] | MIC ([1]; ATCC12600, read-out: MIC Xen29) | antibacterial activity against MRSA (in words) [2] | MIC ([2]; read-out: MIC MRSA)
1 | CCCSc1nc(N[C@@H]2C[C@H]2c2ccc(F)c(F)c2)c2ncn(C)c2n1 [Molecule 2329, N-((1R,2S)-2-(3,4-difluorophenyl)cyclopropyl)-9-methyl-2-(propylthio)-9H-purin-6-amine] | 20 to 25 µM (≈ 7.51 to 9.39 µg/mL) | 20 to 25 µM (≈ 7.51 to 9.39 µg/mL) | 20 µM (≈ 7.51 µg/mL) | 25 to 30 µM (≈ 9.39 to 11.3 µg/mL) | 25 µM (≈ 9.39 µg/mL) | around 2 times | 40 µM (≈ 15 µg/mL) | – | – | – | –
2 | CCCSc1nc(N[C@@H]2C[C@H]2c2ccc(F)c(F)c2)c2ncn(CC)c2n1 [Molecule 2348, N-((1R,2S)-2-(3,4-difluorophenyl)cyclopropyl)-9-ethyl-2-(propylthio)-9H-purin-6-amine] | 20 to 25 µM (≈ 7.79 to 9.74 µg/mL) | 20 to 25 µM (≈ 7.79 to 9.74 µg/mL) | 25 µM (≈ 9.74 µg/mL) | > 50 µM | > 50 µM | – | – | – | – | – | –
3 | C=CCn1cnc2c(N[C@@H]3C[C@H]3c3ccc(F)c(F)c3)nc(SCCC)nc21 [Molecule 2412, 9-allyl-N-((1R,2S)-2-(3,4-difluorophenyl)cyclopropyl)-2-(propylthio)-9H-purin-6-amine] | 20 to 25 µM (≈ 8.03 to 10 µg/mL) | 20 to 25 µM (≈ 8.03 to 10 µg/mL) | 25 to 50 µM (≈ 10 to 20.1 µg/mL) | > 50 µM | > 50 µM | – | – | – | – | – | –
4 | C#CCn1cnc2c(N[C@@H]3C[C@H]3c3ccc(F)c(F)c3)nc(SCCC)nc21 [Molecule 2452, N-((1R,2S)-2-(3,4-difluorophenyl)cyclopropyl)-9-(prop-2-yn-1-yl)-2-(propylthio)-9H-purin-6-amine] | 20 to 25 µM (≈ 7.99 to 9.99 µg/mL) | 20 to 25 µM (≈ 7.99 to 9.99 µg/mL) | 25 to 50 µM (≈ 9.99 to 20 µg/mL) | > 50 µM | > 50 µM | – | – | – | – | – | –
5 | CCn1cnc2c(N[C@@H]3C[C@H]3c3ccc(F)c(F)c3)nc(SC)nc21 [Molecule 2511, N-((1R,2S)-2-(3,4-difluorophenyl)cyclopropyl)-9-ethyl-2-(methylthio)-9H-purin-6-amine] | – | – | – | – | – | – | – | able to inhibit | 30 µM (≈ 10.8 µg/mL) | active | 30 µM (≈ 10.8 µg/mL)
6 | CCSc1nc(N[C@@H]2C[C@H]2c2ccc(F)c(F)c2)c2cnn(C)c2n1.Cl [Molecule 2666, N-((1R,2S)-2-(3,4-difluorophenyl)cyclopropyl)-6-(ethylthio)-1-methyl-1H-pyrazolo[3,4-d]pyrimidin-4-amine hydrochloride] | – | – | – | – | – | around 2 times | 40 µM | able to inhibit | 20 µM | active | 20 µM
